Molecules are shown by their SMILES. Counter-ions that a name gives are not always drawn.

Experimental findings from US5629347A, “Aromatic compounds, pharmaceutical compositions containing them and their use in therapy” (Merck Sharp & Dohme Ltd., priority 1991, dated 1997) are described below.

The target in one test is human NK1R (Homo sapiens, UniProt P25103). The test is described as follows: biochemical. In kind it is binding. As to conditions: 1 h; @ 1 μM; read-out: Substance P antagonism (%). The protocol: To express the cloned human neurokinin-1-receotor (NK1R) transiently in COS, the cDNA for the human NK1R was cloned into the expression vector pCDM9 which was derived from pCDM8 (INVITROGEN) by inserting the ampicillin resistance gene (nucleotide 1973 to 2964 from BLUESCRIPT SK+ (trademark, […], La Jolla, Calif., U.S.A.)) into the Sac II site. Transfection of 20 ug of the plasmid DNA into 10 million COS cells was achieved by electroporation in 800 μl of transfection buffer (135 mM NaCl, 1.2 mM CaCl2, 1.2 mM MgCl2, 2.4 mM K2 HPO4, 0.6 mM KH2 PO4, 10 mM glucose, 10 mM N-2-hydroxyethyl-piperazine-N'-2-ethane sulphonic acid (HEPES) pH 7.4) at 260 V and 950 μF using the IBI GENEZAPPER (trademark IBI, New Haven, Conn., U.S.A.). The cells were incubated in 10% fetal calf serum, 2 mM glutamine, 100 U/ml penicillin-streptomycin, and 90% DMEM media (GIBCO, Grand Island, N.Y., U.S.A.) in 5% CO2 at 37° C. for three days before the binding assay.
Sequence of human NK1R (P25103 whole entry): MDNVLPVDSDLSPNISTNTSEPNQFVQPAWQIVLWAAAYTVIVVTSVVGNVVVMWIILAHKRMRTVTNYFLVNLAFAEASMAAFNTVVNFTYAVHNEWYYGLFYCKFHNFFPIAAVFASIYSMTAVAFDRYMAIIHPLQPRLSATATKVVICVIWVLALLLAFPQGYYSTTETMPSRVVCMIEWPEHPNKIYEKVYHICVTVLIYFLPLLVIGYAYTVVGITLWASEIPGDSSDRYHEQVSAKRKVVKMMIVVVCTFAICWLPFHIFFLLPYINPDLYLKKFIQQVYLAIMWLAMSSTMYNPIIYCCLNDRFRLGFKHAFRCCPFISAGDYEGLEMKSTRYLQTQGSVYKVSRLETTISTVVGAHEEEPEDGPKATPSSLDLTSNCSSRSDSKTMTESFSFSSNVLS
To establish a stable cell line expressing cloned human NK1R, the cDNA was subcloned into the vector pRcCMV (INVITROGEN). Transfection of 20 ug of the plasmid DNA into CHO cells was achieved by electroporation in 800 μl of transfection buffer supplemented with 0.625 mg/ml Herring sperm DNA at 300 V and 950 μF using the IBI GENEZAPPER (IBI). The transfected cells were incubated. in CHO media [10% fetal calf serum, 100 U/ml penicillin-streptomycin, 2 mM glutamine, 1/500 hypoxanthinethymidine (ATCC), 90% IMDM media (JRH BIOSCIENCES, Lenexa, Kans., U.S.A.), 0.7 mg/ml G418 (GIBCO)] in 5% CO2 at 37° C. until colonies were visible. Each colony was separated and propagated. The cell clone with the highest number of human NK1R was selected for subsequent applications such as drug screening.
The binding assay of human NK1R expressed in either COS or CHO cells is based on the use of ^125 I-substance P (^125 I-SP, from DU PONT, Boston, Mass.) as a radioactively labeled ligand which competes with unlabeled substance P or any other ligand for binding to the human NK1R. […] The tubes were incubated at 4° C. or at room temperature for 1 hour with gentle shaking. The bound radioactivity was separated from unbound radioactivity by GF/C filter (BRANDEL, Gaithersburg, Md.) which was prewetted with 0.1% polyethylenimine. The filter was washed with 3 ml of wash buffer (50 mM Tris pH 7.5, 5 mM MnCl2, 150 mM NaCl) three times and its radioactivity was determined by gamma counter.
`N#Cc1cccc(COCC(N)C(c2ccccc2)c2ccccc2)c1` (centres unmarked) [Example 29, 2-Ammoninm-1-((3-cyanophenyl)methyloxy)-3,3-diphenylpropane oxalate salt]: the inhibition at 1 µM was found to be 48%.

Still in this test, the particulars now being: 1 h; @ 03 μM; read-out: Substance P antagonism (%).
Take `O=C(Nc1ccccc1)NC(COCc1cc(C(F)(F)F)cc(C(F)(F)F)c1)C(c1ccccc1)c1ccccc1` (centres unmarked) [Example 43, N-(1-((3',5'-Bis(trifluoromethyl)phenyl)methyloxy)-3,3-diphenylprop-2-yl)-N'-phenylurea]: the inhibition at 0.3 µM stood at 50%.

Still in this test, the particulars now being: displacement of 125I-substance P; human NK1R in COS or CHO cells.
In the case of `NC(=O)CNC(COCc1cc(C(F)(F)F)cc(C(F)(F)F)c1)C(c1ccccc1)c1ccccc1` (centres unmarked) [Example 30, 1-((3,5-Bis(trifluoromethyl)phenyl)methyloxy)-2-((carboxamido)methyl)ammoninm)-3,3-diphenylpropane oxalate salt], the IC50 amounted to 0.4 nM.
`NC(COCc1cccc(Br)c1)C(c1ccccc1)c1ccccc1` (centres unmarked) [Example 31, 2-Ammonium-1-((3-bromophenyl)methyloxy)-3,3-diphenylpropane oxalate salt] registered a half-maximal inhibitory concentration (IC50) of 200 nM.
Same read-out and setting: the same measure for `NC(COCc1cc(Br)cc(Br)c1)C(c1ccccc1)c1ccccc1` (centres unmarked) [Example 32, 2-Ammonium-1-((3,5-dibromophenyl)methyloxy)-3,3-diphenylpropane oxalate salt]: 30 nM.
In turn, `Cc1cc(Br)cc(COCC(N)C(c2ccccc2)c2ccccc2)c1` (centres unmarked) [Example 33, 2-Ammonium-1-((3-bromo-5-methylphenyl)methyloxy)-3,3-diphenylpropane oxalate salt] showed an IC50 of 20 nM.
`N#CCNC(COCc1cc(C(F)(F)F)cc(C(F)(F)F)c1)C(c1ccccc1)c1ccccc1` (centres unmarked) [Example 34, 1-((3,5-Bis(trifluoromethyl)phenyl)methyloxy)-2-(cyanomethyl)amino-3,3-diphenylpropane]: the half-maximal inhibitory concentration (IC50) amounted to 10 nM.
Still for that read-out and setting: with `Cc1cc(C)cc(COCC(C(c2ccccc2)c2ccccc2)N(C)CC(N)=O)c1` (centres unmarked) [Example 36, 2-(N-((Carboxamido)methyl)-N-methyl)ammonium-1-((3,5-dimethylphenyl)methyloxy)-3,3-diphenyl propane oxalate salt] the figure was 7 nM; with `CC(=O)N(C)C(COCc1cc(C)cc(C)c1)C(c1ccccc1)c1ccccc1` (centres unmarked) [Example 37], 200 nM; with `CC(=O)NC(COCc1cc(C)cc(C)c1)C(c1ccccc1)c1ccccc1` (centres unmarked) [Example 38, 2-Acetamido-1-(((3,5-dimethyl)phenyl)methyloxy)-3,3-diphenylpronane], 70 nM.
In the case of `Cc1cc(C)cc(COCC(C(c2ccccc2)c2ccccc2)N(C)C(=O)c2ccccc2)c1` (centres unmarked) [Example 39, 2-(((N-Methyl)benzamido)-1-((3,5-dimethyl)phenyl)methyloxy)-3,3-diphenylpropane], the IC50 came out at 800 nM.
On to `Cc1cc(C)cc(COCC(NC(=O)c2ccccc2)C(c2ccccc2)c2ccccc2)c1` (centres unmarked) [Example 40, 2-Benzamido-1-(((3,5-dimethyl)phenyl)methyloxy)3,3-diphenylpropane], for which the IC50 was 580 nM.
`CNC(=O)NC(COCc1cc(C(F)(F)F)cc(C(F)(F)F)c1)C(c1ccccc1)c1ccccc1` (centres unmarked) [Example 42, N-(1-((3',5'-Bis(trifluoromethyl)phenyl)methyloxy)-3,3-diphenylprop-2-yl)-N'-methyl urea] registered an IC50 of 40 nM.
Still for that read-out and setting: the same measure for `O=C(O)CNC(COCc1cc(C(F)(F)F)cc(C(F)(F)F)c1)C(c1ccccc1)c1ccccc1` (centres unmarked) [Example 44, N-(1-((3',5'-Bis(trifluoromethyl)phenyl)methyloxy)-3,3-diphenylprop-2-yl)glycine]: 15 nM; for `Cc1cc(C)cc(COCC(NCC(=O)O)C(c2ccccc2)c2ccccc2)c1` (centres unmarked) [Example 45, N-(1-(((3',5'-Dimethyl)phenyl)methyloxy)-3,3-diphenylprop-2-yl)glycine]: 40 nM; for `Cc1cc(C)cc(COCC(NCC(=O)NCC(N)=O)C(c2ccccc2)c2ccccc2)c1` (centres unmarked) [Example 46, N-(1-(((3',5'-Dimethyl)phenyl)methyloxy)-3,3-diphenylprop-2-yl)glycylglycine amide]: 4 nM.
The same measure, in the same setting: with `Cc1cc(C)cc(COCC(NCC(=O)NCc2ccccc2)C(c2ccccc2)c2ccccc2)c1` (centres unmarked) [Example 47, N-(1-(((3',5'-Dimethyl)phenyl)methyloxy)-3,3-diphenylprop-2-yl)glycylbenzamide oxalate salt] the figure was 15 nM; with `CN(C)C(=O)CNC(COCc1cc(C(F)(F)F)cc(C(F)(F)F)c1)C(c1ccccc1)c1ccccc1` (centres unmarked) [Example 48, N-(1-((3',5'-Bis(trifluoromethyl)phenyl)methyloxy)-3,3-diphenylprop-2-yl)glycine dimethylamide hydrochloride salt], 10 nM.
Take `CN(C)C(=O)CN(C)C(COCc1cc(C(F)(F)F)cc(C(F)(F)F)c1)C(c1ccccc1)c1ccccc1` (centres unmarked) [Example 49, N-(1-((3',5'-Bis(trifluoromethyl)phenyl)methyloxy)-3,3-diphenylprop-2-yl)-N-methylglycine dimethylamide oxalate salt]: the IC50 stood at 15 nM.
In turn, `O=C(CNC(COCc1cc(C(F)(F)F)cc(C(F)(F)F)c1)C(c1ccccc1)c1ccccc1)NCCO` (centres unmarked) [Example 50, N-(1-((3',5'-Bis(trifluoromethyl)phenyl)methyloxy)-3,3-diphenylprop-2-yl)glycine 2-hydroxyethylamide] had an IC50 of 1 nM.
In the case of `COCCNC(=O)CNC(COCc1cc(C(F)(F)F)cc(C(F)(F)F)c1)C(c1ccccc1)c1ccccc1` (centres unmarked) [Example 51, N-(1-((3',5'-Bis(trifluoromethyl)phenyl)methyloxy)-3,3-diphenylprop-2-yl)glycine 2-methoxyethylamide], the IC50 is 1 nM.
In turn, `CN(C)CCNC(=O)CNC(COCc1cc(C(F)(F)F)cc(C(F)(F)F)c1)C(c1ccccc1)c1ccccc1` (centres unmarked) [Example 52, N-(1-((3',5'-Bis(trifluoromethyl)phenyl)methyloxy)-3,3-diphenylprop-2-yl)glycine N',N'-dimethylethylamide bis oxalate salt] came in with an IC50 of 1 nM.
Turning to `CNC(=O)CN(C)C(COCc1cc(C(F)(F)F)cc(C(F)(F)F)c1)C(c1ccccc1)c1ccccc1` (centres unmarked) [Example 54, 1-((3,5-Bis(trifluoromethyl)phenyl)methyloxy)-2-((N-((methylcarboxamido)methyl)-N-methyl)amino)-3,3-diphenylpropane monohydrate], the half-inhibitory concentration (IC50) came out at 2 nM.
In the case of `Cc1cc(C)cc(COC[C@H](C(c2ccccc2)c2ccccc2)N(C)C)c1` [Example 55, (S)-2-Dimethylammonium-1-((3,5-dimethylphenyl)methyloxy)-3,3-diphenylpropane Oxalate salt], the IC50 was 2 nM.
Still for that read-out and setting: with `Cc1cc(C)cc(COC[C@@H](C(c2ccccc2)c2ccccc2)N(C)C)c1` [Example 56, (R)-2-Dimethylammonium-1-((3,5-dimethylphenyl)methyloxy)-3,3-diphenylpropane tosylate salt] the figure was 18 nM; with `NC(=O)CN[C@H](COCc1cc(C(F)(F)F)cc(C(F)(F)F)c1)C(c1ccccc1)c1ccccc1` [Example 57, (S)-1-((3',5'-Bis(trifluoromethyl)phenyl)methyloxy)-2-(((carboxamido)methyl)ammonium)-3,3-diphenylpropane oxalate salt], 0.8 nM; with `O=C(CCl)NC(COCc1cc(C(F)(F)F)cc(C(F)(F)F)c1)C(c1ccccc1)c1ccccc1` (centres unmarked) [Example 60], 80 nM.
The same measure, in the same setting: with `NCC(=O)NC(COCc1cc(C(F)(F)F)cc(C(F)(F)F)c1)C(c1ccccc1)c1ccccc1` (centres unmarked) [Example 61, 2-(2-Ammoniumacetamido)-1-((3,5-bis(trifluoromethyl)phenyl)methyloxy)-3,3-diphenylpropane oxalate salt hemihydrate] the figure was 30 nM; with `CN(C)CC(=O)NC(COCc1cc(C(F)(F)F)cc(C(F)(F)F)c1)C(c1ccccc1)c1ccccc1` (centres unmarked) [Example 62, 2-(2-(Dimethylamino)acetamido)-1-((3,5-bis(trifluoromethyl)phenyl)methyloxy)-3,3-diphenylpropane], 200 nM.
